From US9895363B2, “Methods for modulating function of proliferating cell nuclear antigen (PCNA) and treating cancer with PCNA-targeting compounds” (University of Cincinnati, priority 2010, dated 2018)
pIC50: −log10 of the molar value. Entries after “also recorded” stand apart in the source; their conditions may differ. Read-outs that look alike come from different tables or passages of the source.

Columns and labels:
T47D breast cancer cells = assay: Growth inhibition by MTT staining, T47D; assay type: cell-based; conditions: 96 h, Human tumor cells, treated four days
Description: (§1) Growth inhibitory effects of PCNA-I1 and PCNA-I2 were assessed in human cancer cell lines, mouse cancer cell lines, immortalized mouse cell lines, and human primary cell lines. Specifically, growth inhibitory effects of PCNA-I1 and PCNA-I2 were assessed using MTT staining in the following cells lines: 1) human cancer cell lines including LNCaP (androgen receptor […]), 22Rv1, DU-145, LAPC-4, and PC-3 (androgen receptor […]) prostate cancer cells; MCF-7 and T47D breast cancer cells; A375 and MDA-MB435 melanoma cells; 2) mouse cancer cell lines including TRAMP-C2RE3 prostate cancer cells, B16 and K1735 melanoma cells, UV2237 fibrosarcoma cells, and CT-26 colon cancer cells; 3) immortalized mouse lung cell lines and mouse endothelial cell lines; and 4) primary human cell lines including umbilical endothelial cells (HUVEC, PromoCell, Heidelberg, Germany), primary bone marrow mesenchymal stem cells (HuMSC, PromoCell), primary human mammary epithelial cells (HuBrEC, Lonza, Walkersville, Md.), primary human prostate epithelial cells (HuPrEC, Lonza), and primary mouse spleen lymphocytes (isolated in this laboratory), and primary mouse bone marrow stromal cells (isolated in this laboratory). […]
(§2) IC50 values were derived from growth inhibition curves. […] Inhibition of cell growth was calculated using the formula: growth inhibition (%)=(1−A570 of treated/A570 of control)×100. […]

[1] = test system: LAPC-4 prostate cancer cells; assay: Growth inhibition by MTT staining, LAPC-4; assay type: cell-based; conditions: LAPC4, 96 h, Human tumor cells, treated four days
Description: as §1, §2

A375 melanoma cells = assay: Growth inhibition by MTT staining, A375; assay type: cell-based; conditions: A-375, 96 h, Human, treated four days
Description: as §1, §2

K1735 melanoma cells = assay: Growth inhibition by MTT staining, K1735; assay type: cell-based; conditions: 96 h, Mouse, treated four days
Description: as §1, §2

CT-26 colon cancer cells = assay: Growth inhibition by MTT staining, CT-26; assay type: cell-based; conditions: CT26; Mouse tumor cells; cell line not given; read-out: IC50 Values, cell line cell blank (first row below UV2237)
Description: as §1, §2

[2] = test system: CT26R100 murine colon cancer cell line; assay: Growth inhibition by MTT staining, CT26R100; assay type: cell-based, Mouse
GFP-PCNA = GFP-PCNA chromatin association, fluorescence microscopy; assay type: cell-based, Human; conditions: PC-3 transfected with pGFP-PCNA; 4 H, 0.5 μM PCNA-I1 or 2 μM PCNA-I2; FIG. 11
Description: Additionally, PC-3 cells were transfected for 24 H with pGFP-PCNA. The cells were then treated for 4 H with 0.5 μM of PCNA-I1 or 2 μM of PCNA-I2. The intact GFP-PCNA expressing cells were observed under a fluorescent microscope and recorded. After treatment with a buffer with 0.5% NP-40 buffer B, the cells were examined and recorded.

PCNA = target: T1, PCNA (Homo sapiens, UniProt P12004); assay: PCNA stability and degradation (immunoblot); assay type: cell-based; conditions: PC-3, 0.5 μM, up to 16 H, with or without CHX and MG132; FIG. 14
T1 construct: endogenous PCNA was knocked down with transfection of PCNA-specific siRNA; endogenous in cells; host or cells: PC-3
T1 sequence (P12004 whole entry): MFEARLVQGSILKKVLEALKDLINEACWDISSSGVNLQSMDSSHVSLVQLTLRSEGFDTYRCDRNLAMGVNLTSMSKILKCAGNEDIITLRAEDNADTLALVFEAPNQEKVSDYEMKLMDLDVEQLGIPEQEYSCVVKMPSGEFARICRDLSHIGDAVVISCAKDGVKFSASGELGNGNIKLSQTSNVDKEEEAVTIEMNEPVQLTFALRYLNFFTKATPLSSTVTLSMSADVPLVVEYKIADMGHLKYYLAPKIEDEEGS
Description: PCNA is a very stable protein with a half life of 20 H in replicating cells. The effect of PCNA-I1 on PCNA stability and degradation was investigated. Specifically, PC-3 cells were treated for various times up to 24 H with protein synthesis inhibitor cycloheximide (CHX) to block de novo protein synthesis. Cells were lyzed in buffer A as discussed above and analyzed by immunoblotting. Additionally, because PCNA is subject to ubiquitination regulation, the effect of PCNA-I1 on and deregulation of PCNA through the proteosome-mediated system was also investigated. Specifically, PC-3 cells were treated for 16 H with 0.5 μM PCNA-I1 in the absence or presence of 5 μg/mL of CHX and/or 10 μM of MG132, a well-documented proteosome inhibitor.

PC-3 cells = assay: MTT assay, PCNA-I1 and cisplatin alone or combined, PC-3; assay type: cell-based, Human; conditions: Homo sapiens
Description: LNCaP or PC-3 cells were treated with a variety of concentrations of PCNA-I1 (0.1-10 μM) or cisplatin (0.1-10 μM) alone, or with a variety of concentrations of a combination of PCNA-I1 (0.1-10 μM) and cisplatin (0.1-10 μM) for four days. MTT assays were performed and IC50 values for PCNA-I1 and cisplatin were determined.

Cc1ccsc1C(=O)N/N=C/c1ccc2ccccc2c1O [PCNA-I1]
pIC50 (T47D breast cancer cells): 6.82 | pIC50 [1]: 6.52 | pIC50 (A375 melanoma cells): 6.54 | pIC50 (K1735 melanoma cells): 7.30 | pIC50 (CT-26 colon cancer cells): 6.89 | pIC50 ([2]; Mouse tumor cells, cell line not given, read-out: IC50 Values, cell line cell blank (second row below UV2237)): 7.10 | Sensitivity of multidrug resistant CT26R100 and CT26-R500 cells relative to parental CT26 cells ([2]; cells overexpress P-glycoprotein, MDR phenotype): even more sensitive to PCNA-I1 than the parental CT26 cells; also recorded: as susceptible as the parental CT-26 cells | Level of chromatin-associated GFP-PCNA (GFP-PCNA): reduced the level of chromatin-associated GFP-PCNA | Total intensity of GFP-PCNA (GFP-PCNA): did not significantly alter the total intensity of GFP-PCNA | PCNA degradation (PCNA): did not alter PCNA degradation | pIC50 (PC-3 cells; PC-3, 96 h, MTT, four days, single agent, read-out: IC50 doses for cell growth inhibition, PC-3, agent alone): 6.62 | pIC50 (PC-3 cells; PC-3, combined with 0.3 μM cisplatin, read-out: PCNA-I1 concentration giving 50% inhibition in combination, PC-3): 7.10
